Assay results taken from US20230348394A1, “COMPOSITIONS AND METHODS FOR TREATING MUSCULAR DYSTROPHIES” (The Regents of the University of California, priority 2020, published 2023).

Key:
SSPN mRNA [1] = experiment: SSPN gene expression in C2C12, H2K WT and H2K mdx myoblasts; type: cell-based, murine; conditions: 24 hours, 1, 5 and 10 μM
Experimental: FIG. 9. OT-9 is effective in multiple myoblast lines. […] Myoblasts were treated for 24 hours with 1, 5, and 10 μM of OT-9 or PC1-36. Gene expression was normalized to β-actin and vehicle-treated cells (0.1% DMSO). Data represents individual replicates and mean value. n=3-6. SSPN, sarcospan; R.U., relative units. *p<0.05, **p<0.01, ***p<0.001, ****p<0.0001.
RNA from myotubes treated for 48 hrs was extracted from cells using Trizol-based (Thermo Fisher Scientific) phase separation, Chomczynski et al., Biotechniques. 1993; 15(3):532-4, 6-7. RNA concentrations were determined using a NanoDrop 1000 (Thermo Fisher Scientific) and 750 ng of RNA in a 20 Id reaction was reverse transcribed using iScript cDNA synthesis (Bio-Rad) with the following cycling conditions: 25° C. for 5 mins, 42° C. for 30 mins, 85° C. for 5 mins. For mouse qPCR, SsoFast EvaGreen Supermix (Bio-Rad), 400 nM of each optimized forward and reverse primer (SSPN F: 5′ […] 3′, SSPN R: 5′ […] 3′, BACT F: 5′ […] 3′, BACT R: 5′ […] 3′), and cDNA corresponding to 37.5 ng RNA were used to amplify cDNA measured by QuantStudio 5 Real-Time PCR System (Thermo Fisher Scientific) with the following reaction conditions: 55° C. for 2 mins, 95° C. for 2 mins, 40 cycles of 95° C. for 10 seconds and 62° C. for 30 seconds, and dissociation stage. […]

mdx myotubes = experiment: Membrane stability assay (creatine kinase release after osmotic shock); type: cell-based, murine; conditions: for CK release after osmotic shock: 5 μM
Experimental: The membrane stability assay was modified from previously described methods. The solutions for osmotic shock were prepared from a base solution containing 5 mM HEPES, 5 mM KCl, 1 mM MgCl2, 5 mM NaCl, 1.2 mM CaCl2), and 1 mM glucose. Sucrose was added to the base solutions to reach osmolarities of 50, 80, 100, 280, and 300 mosmol. The actual osmolarity was determined using a VAPRO vapor pressure osmometer (Wescor Inc.) Myotubes were treated for 48 hours and at day 4 of differentiation were subjected to 20 mins of osmotic shock at 37° C. using 28.5 to 223.5 milliosmole (mosmol) solutions. The supernatant was collected and centrifuged to separate cell debris. Adherent cells were trypsinized and pelleted before lysis with water and 3 freeze-thaw cycles. The Creatine Kinase Assay (Sekisui Diagnostics) was used to measure creatine kinase (CK) levels in both the supernatant and lysate fractions. In a 96-well plate, 4 μl of each sample and 140 μl of reagent was loaded per well in triplicate. The U/L of CK was calculated as follows: (mOD/min)(total volume in mL)(dilution factor)/(6.22M-lcm-1)(light path in cm)(sample volume in mL). The percent CK release was calculated as follows: CKextracellular/(CKextracellular+CKintracellular)*100.
The assay entails subjecting myotubes to osmotic shock, which causes cell swelling and membrane damage, allowing for intracellular CK to be released from the cell into the surrounding medium (FIG. 5a).
To assess the effect of SSPN knockdown on membrane stability in the absence of any compound treatment, we transfected mdx myotubes with 24 and 48 nM of scramble and SSPN siRNA and subjected the cells to osmotic shock with 45 mosmol solutions. […] We treated mdx myotubes with 10 μM of OT-9 in parallel with 24 nM of scramble or SSPN siRNA for 48 hours prior to osmotic shock and discovered that depletion of SSPN increased the CK release from 6.5% to 8% (FIG. 5d).

SSPN mRNA [2] = experiment: SSPN gene expression in wild-type C2C12 myotubes; type: cell-based, mouse
Experimental: C2C12 cells (American Type Culture Collection) were grown at 37° C. with 5% CO2 in growth medium containing DMEM (Gibco) with 20% FBS (Sigma-Aldrich). Upon reaching 90-100% confluency, myoblasts were induced to differentiate by replacing the medium with differentiation medium consisting of DMEM with 2% horse serum (Sigma-Aldrich). Conditionally immortalized H2K WT and mdx myoblasts with a nonsense mutation in exon 23 of dystrophin were a gift from Terrance Partridge, Ph.D. (Children's National Medical Center, Washington, D.C.). See, Morgan et al., Dev Biol. 1994; 162(2):486-98 Myoblasts were allowed to proliferate on 0.01% gelatin (Sigma-Aldrich) coated plates at 33° C. with 5% CO2 with growth medium containing DMEM, 20% HI-FBS (Invitrogen), 2% L-glutamine (Sigma-Aldrich), 2% chicken embryo extract (Accurate Chemical), 1% penicillin-streptomycin (Sigma-Aldrich), and 20 U/ml of fresh interferon gamma (Gibco). […]
RNA from myotubes treated for 48 hrs was extracted from cells using Trizol-based (Thermo Fisher Scientific) phase separation, Chomczynski et al., Biotechniques. […] RNA concentrations were determined using a NanoDrop 1000 (Thermo Fisher Scientific) and 750 ng of RNA in a 20 Id reaction was reverse transcribed using iScript cDNA synthesis (Bio-Rad) with the following cycling conditions: 25° C. for 5 mins, 42° C. for 30 mins, 85° C. for 5 mins. For mouse qPCR, SsoFast EvaGreen Supermix (Bio-Rad), 400 nM of each optimized forward and reverse primer (SSPN F: 5′ […] 3′, SSPN R: 5′ […] 3′, BACT F: 5′ […] 3′, BACT R: 5′ […] 3′), and cDNA corresponding to 37.5 ng RNA were used to amplify cDNA measured by QuantStudio 5 Real-Time PCR System (Thermo Fisher Scientific) with the following reaction conditions: 55° C. for 2 mins, 95° C. for 2 mins, 40 cycles of 95° C. for 10 seconds and 62° C. for 30 seconds, and dissociation stage. […] Data was analyzed using the ddCT method and normalized to reference gene ACTB with vehicle-treated samples serving as the calibrator (relative expression of vehicle control=1). […]

CK release after osmotic shock (mdx myotubes; 48 hours, 28.5 mosmol solution): did not reduce CK release | CK release after osmotic shock (mdx myotubes; 48 hours, 45, 63 and 223.5 mosmol solutions): significantly reduced CK release
SMILES: CCN(CC)c1ccc2cc(C(=O)Nc3ccc(C(=O)N4CCCCCC4)cc3)c(=O)oc2c1 [OT-9]
SSPN mRNA levels in myoblasts (SSPN mRNA [1]): increased SSPN mRNA levels in all myoblast lines | CK release (mdx myotubes; 10 μM OT-9 with 24 nM SSPN siRNA, 48 hours): 8% | CK release (mdx myotubes; 10 μM OT-9 with 24 nM scramble siRNA, 48 hours): 6.5% | SSPN mRNA levels after compound removal (SSPN mRNA [2]; 5 μM for 4 hours, 4, 24 and 48 hours after compound removal): returned to baseline levels | SSPN mRNA levels over the vehicle control (SSPN mRNA [2]; 5 μM for 4 hours, immediately after compound removal (0h)): 1.5 fold | SSPN mRNA levels (SSPN mRNA [2]; 5 μM, 48 hours): increased SSPN mRNA levels
